Consider 13 compounds from patent publication US9079866B2, “Flap modulators” (JANSSEN PHARMACEUTICA NV, priority 2013, dated 2015).

Structures are written as SMILES.

Test [1] concerns leukotriene pathway in human whole blood (LTB4 levels). In words: Human whole blood assay (A23187-stimulated LTB4). Type of test: cell-based. The conditions noted are these: Homo sapiens, human whole blood diluted 1:1, A23187-stimulated; read-out: LTB4 IC50 1:1. Put shortly: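 Blood (heparin) diluted 1:1 RPMI; compound pre-incubation 15 min, 37° Celsius; A23187 7 μg/mL, 30 min, 37° Celsius; plasma LTB4 by commercial kit. IC50 via 4-parameter equation.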

For the next test, the target named is human FLAP (Homo sapiens (Human), UniProt P20292). In words: FLAP binding assay (HTRF format). The conditions noted are these: wild type FLAP, HTRF format. In outline:
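Samples were run in duplicate on each of two assay plates, the results were averaged, and the signal was expressed as an HTRF ratio.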

Chain of human FLAP (P20292 whole entry): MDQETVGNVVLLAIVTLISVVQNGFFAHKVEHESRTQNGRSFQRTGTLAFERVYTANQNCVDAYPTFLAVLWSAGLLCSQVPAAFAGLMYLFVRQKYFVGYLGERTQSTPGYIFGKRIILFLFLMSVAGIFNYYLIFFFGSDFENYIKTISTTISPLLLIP

In the case of `Nc1cnc(-c2ccc(-c3ccc(C(F)(F)F)cc3C=O)cc2F)cn1` [Example 604, 4′-(5-Aminopyrazin-2-yl)-3′-fluoro-4-(trifluoromethyl)biphenyl-2-carbaldehyde], the IC50 in test [1] was 89.4 nM. In addition, the affinity on human FLAP corresponds to a Ki of 5 nM.
The corresponding values for `Nc1cnc(-c2ccc(-c3ccc(C(F)(F)F)cc3CN3CCOCC3)cc2F)cn1` [Example 605, 5-[3-Fluoro-2′-(morpholin-4-ylmethyl)-4′-(trifluoromethyl)biphenyl-4-yl]pyrazin-2-amine] are 97.8 nM and 1.9 nM.
The corresponding values for `Nc1cnc(-c2ccc(-c3ccc(C(F)(F)F)cc3CN3CCC(N)CC3)cc2F)cn1` [Example 606, 5-{2′-[(4-Aminopiperidin-1-yl)methyl]-3-fluoro-4′-(trifluoromethyl)biphenyl-4-yl}pyrazin-2-amine] are 2620 nM and 46.3 nM.
The corresponding values for `Nc1cnc(-c2ccc(-c3ccc(C(F)(F)F)cc3CNCCO)cc2F)cn1` [Example 607, 2-({[4′-(5-Aminopyrazin-2-yl)-3′-fluoro-4-(trifluoromethyl)biphenyl-2-yl]methyl}amino)ethanol] are 152 nM and 138 nM.
On to `Cc1cc(C)nc(Oc2ccccc2-c2ccc(-c3cnc(N)cn3)c(F)c2)n1` [Example 608, 5-{2′-[(4,6-Dimethylpyrimidin-2-yl)oxy]-3-fluorobiphenyl-4-yl}pyrazin-2-amine], for which the IC50 in test [1] was 53.9 nM. At human FLAP, the Ki stood at 28.7 nM.
For `Cc1cc(C)nc(Oc2ccccc2-c2ccc(-c3cnc(N)nc3)c(F)c2)n1` [Example 609, 5-{2′-[(4,6-Dimethylpyrimidin-2-yl)oxy]-3-fluorobiphenyl-4-yl}pyrimidin-2-amine] the same measures were 768 nM and 246 nM.
As to `Nc1cnc(-c2ccc(-c3ccccc3Oc3ccnc(C(F)(F)F)c3)cc2F)cn1` [Example 610, 5-(3-Fluoro-2′-{[2-(trifluoromethyl)pyridin-4-yl]oxy}biphenyl-4-yl)pyrazin-2-amine], the IC50 in test [1] was found to be 117 nM. At human FLAP, this compound showed a Ki of 27.4 nM.
For `Nc1ncc(-c2ccc(-c3ccccc3Oc3ccnc(C(F)(F)F)c3)cc2F)cn1` [Example 611, 5-(3-Fluoro-2′-{[2-(trifluoromethyl)pyridin-4-yl]oxy}biphenyl-4-yl)pyrimidin-2-amine] the same measures were 563 nM and 249 nM.
In the case of `Nc1cnc(-c2ccc(-c3ccccc3Oc3nccc(C(F)(F)F)n3)cc2F)cn1` [Example 612, 5-(3-Fluoro-2′-{[4-(trifluoromethyl)pyrimidin-2-yl]oxy}biphenyl-4-yl)pyrazin-2-amine], the IC50 in test [1] is 42 nM. Affinity on human FLAP was put at a Ki of 14.6 nM.
For `Nc1ncc(-c2ccc(-c3ccccc3Oc3nccc(C(F)(F)F)n3)cc2F)cn1` [Example 613, 5-(3-Fluoro-2′-{[4-(trifluoromethyl)pyrimidin-2-yl]oxy}biphenyl-4-yl)pyrimidin-2-amine] the same measures were 556 nM and 215 nM.
The corresponding values for `N#Cc1cccc(Oc2ccccc2-c2ccc(-c3cnc(N)nc3)c(F)c2)n1` [Example 618, 6-{[4′-(2-Aminopyrimidin-5-yl)-3′-fluorobiphenyl-2-yl]oxy}pyridine-2-carbonitrile] are 211 nM and 14.6 nM.
In the case of `N#Cc1cccc(Oc2ccccc2-c2ccc(-c3cnc(N)cn3)c(F)c2)n1` [Example 619, 6-{[4′-(5-Aminopyrazin-2-yl)-3′-fluorobiphenyl-2-yl]oxy}pyridine-2-carbonitrile], the IC50 in test [1] was 45.1 nM. Also, on human FLAP, the Ki was 3.4 nM.
For `Nc1ccc(Oc2ccccc2-c2ccc(-c3cnc(N)cn3)c(F)c2)nc1` [Example 620, 5-{2′-[(5-Aminopyridin-2-yl)oxy]-3-fluorobiphenyl-4-yl}pyrazin-2-amine] the same measures were 13.2 nM and 1.9 nM.

The term IC50 denotes the concentration that gives 50% inhibition. By Ki is commonly meant a dissociation constant, usually derived from enzyme kinetics or from competition with a known ligand. Read a high Ki as lower affinity.
